In assay [1] the target is T1, Histamine H4 receptor (Homo sapiens, UniProt Q9H3N8). The assay is described as follows: Antagonist activity at H4 receptor in human SH-SY5Y cells assessed as inhibition of imetit-induced GTPgamma[35S] binding at 1 uM after 30 mins by microbeta scintillation counting method relative to control. It is filed as cell-based.
The target in assay [2] is T1, Histamine H4 receptor. The assay is described as follows: Antagonist activity at H4 receptor in human SH-SY5Y cells assessed as inhibition of imetit-induced GTPgamma[35S] binding after 30 mins by microbeta scintillation counting method. It is filed as cell-based. A general note: GTPγS is a poorly hydrolysed GTP analogue; its binding reports G protein activation.
The next assay has as its target Histamine H3 receptor (Homo sapiens, UniProt Q9Y5N1). In words: Antagonist activity at H3 receptor (unknown origin).
Assay [3] deals with T1, Histamine H4 receptor. In words: Antagonist activity at human H4 receptor expressed in CHO cells co-expressing Galphai2 assessed as inhibition of imetit-induced GTPgamma[35S] binding after 30 mins by microbeta scintillation counting method. Format: cell-based.
Assay [4] deals with T1, Histamine H4 receptor. The assay is described as follows: Antagonist activity at human H4 receptor expressed in CHO cells co-expressing Galphai2 assessed as inhibition of imetit-induced GTPgamma[35S] binding at 1 uM after 30 mins by microbeta scintillation counting method relative to control. It is filed as cell-based.
Assay [5] has as its target T1, Histamine H4 receptor. In words: Antagonist activity at H4 receptor (unknown origin).
The target of assay [6] is Voltage-gated inwardly rectifying potassium channel KCNH2 (Homo sapiens, UniProt Q12809). The assay is described as follows: Inhibition of human ERG.
Sequence of Voltage-gated inwardly rectifying potassium channel KCNH2 (Q12809 whole entry): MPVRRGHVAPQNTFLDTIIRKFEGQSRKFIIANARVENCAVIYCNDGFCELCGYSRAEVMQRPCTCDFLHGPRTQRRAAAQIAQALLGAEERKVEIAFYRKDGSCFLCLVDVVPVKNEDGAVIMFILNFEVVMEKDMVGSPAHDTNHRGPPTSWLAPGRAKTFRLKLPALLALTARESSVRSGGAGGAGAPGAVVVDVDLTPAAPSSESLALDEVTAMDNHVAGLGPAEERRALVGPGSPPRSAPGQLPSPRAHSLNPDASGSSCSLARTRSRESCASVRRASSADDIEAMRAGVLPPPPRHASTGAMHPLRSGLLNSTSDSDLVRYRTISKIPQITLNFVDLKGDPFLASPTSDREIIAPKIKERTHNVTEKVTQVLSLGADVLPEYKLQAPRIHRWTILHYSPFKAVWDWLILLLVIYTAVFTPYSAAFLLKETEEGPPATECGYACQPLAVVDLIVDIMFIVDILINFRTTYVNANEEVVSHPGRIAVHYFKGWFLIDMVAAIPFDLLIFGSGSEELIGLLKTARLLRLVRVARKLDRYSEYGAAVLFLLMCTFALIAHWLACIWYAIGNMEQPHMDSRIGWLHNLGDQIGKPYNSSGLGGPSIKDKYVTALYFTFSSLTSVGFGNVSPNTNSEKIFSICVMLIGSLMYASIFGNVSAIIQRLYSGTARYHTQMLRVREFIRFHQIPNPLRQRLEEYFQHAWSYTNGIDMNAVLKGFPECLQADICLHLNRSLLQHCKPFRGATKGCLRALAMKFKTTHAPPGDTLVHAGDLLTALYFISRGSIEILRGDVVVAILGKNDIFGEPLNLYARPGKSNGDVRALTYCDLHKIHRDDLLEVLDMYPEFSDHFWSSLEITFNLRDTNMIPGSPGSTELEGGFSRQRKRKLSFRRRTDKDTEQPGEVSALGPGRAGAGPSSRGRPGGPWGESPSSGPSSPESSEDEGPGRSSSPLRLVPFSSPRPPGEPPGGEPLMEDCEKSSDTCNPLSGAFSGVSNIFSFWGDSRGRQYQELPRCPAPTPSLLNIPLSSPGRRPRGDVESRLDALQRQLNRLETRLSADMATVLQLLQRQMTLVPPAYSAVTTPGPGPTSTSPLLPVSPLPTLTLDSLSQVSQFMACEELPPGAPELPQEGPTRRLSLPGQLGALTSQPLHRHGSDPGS
A further assay addresses D(3) dopamine receptor (Homo sapiens, UniProt P35462). In words: Antagonist activity at D3 receptor (unknown origin).
The target of assay [7] is T1, Histamine H4 receptor. The assay is described as follows: Agonist activity at human H4 receptor expressed in CHO cell membranes co-expressing Galphai2 by GTPgamma[35S] binding assay.
Assay [8] deals with T1, Histamine H4 receptor. The assay is described as follows: Agonist activity at human H4 receptor expressed in CHO cell membranes co-expressing Galphai2 at 1 uM by GTPgamma[35S] binding assay.
In assay [9] the target is T1, Histamine H4 receptor. The assay is described as follows: Antagonist activity at human H4 receptor assessed as inhibition of imetit-induced GTPgamma[35S] binding after 30 mins by microbeta scintillation counting method.

Sequence of Histamine H3 receptor (Q9Y5N1 whole entry): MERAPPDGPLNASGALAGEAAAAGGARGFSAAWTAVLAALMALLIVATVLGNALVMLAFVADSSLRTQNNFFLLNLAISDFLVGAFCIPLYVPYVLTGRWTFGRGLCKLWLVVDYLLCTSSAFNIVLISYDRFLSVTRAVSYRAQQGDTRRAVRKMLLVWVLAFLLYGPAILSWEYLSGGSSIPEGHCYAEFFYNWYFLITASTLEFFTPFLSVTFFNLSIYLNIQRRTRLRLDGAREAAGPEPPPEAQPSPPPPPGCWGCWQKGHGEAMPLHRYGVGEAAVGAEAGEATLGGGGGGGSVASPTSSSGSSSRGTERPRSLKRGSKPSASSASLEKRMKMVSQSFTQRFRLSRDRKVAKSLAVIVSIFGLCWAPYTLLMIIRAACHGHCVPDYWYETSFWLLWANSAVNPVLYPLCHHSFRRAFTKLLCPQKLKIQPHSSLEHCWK
T1 sequence (Q9H3N8 whole entry): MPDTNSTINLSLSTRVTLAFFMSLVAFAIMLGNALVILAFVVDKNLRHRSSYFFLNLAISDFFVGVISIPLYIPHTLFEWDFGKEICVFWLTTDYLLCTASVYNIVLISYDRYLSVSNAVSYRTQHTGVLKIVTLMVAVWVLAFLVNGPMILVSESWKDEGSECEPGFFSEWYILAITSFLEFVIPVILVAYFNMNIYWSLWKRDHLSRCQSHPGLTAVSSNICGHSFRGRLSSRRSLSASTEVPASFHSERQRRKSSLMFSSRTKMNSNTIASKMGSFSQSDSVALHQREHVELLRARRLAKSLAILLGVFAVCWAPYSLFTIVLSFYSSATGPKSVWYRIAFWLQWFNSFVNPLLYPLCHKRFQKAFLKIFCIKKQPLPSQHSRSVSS
Sequence of D(3) dopamine receptor (P35462 whole entry): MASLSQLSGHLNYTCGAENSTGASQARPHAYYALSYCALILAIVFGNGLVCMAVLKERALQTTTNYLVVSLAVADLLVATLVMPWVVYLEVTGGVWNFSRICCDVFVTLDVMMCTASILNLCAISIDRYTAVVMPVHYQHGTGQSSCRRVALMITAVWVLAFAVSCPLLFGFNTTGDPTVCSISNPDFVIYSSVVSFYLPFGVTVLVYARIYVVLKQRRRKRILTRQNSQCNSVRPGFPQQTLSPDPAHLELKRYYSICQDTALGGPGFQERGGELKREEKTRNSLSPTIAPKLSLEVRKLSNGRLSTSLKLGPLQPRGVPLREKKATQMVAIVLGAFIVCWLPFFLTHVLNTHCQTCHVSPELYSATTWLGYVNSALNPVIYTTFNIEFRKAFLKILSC

As for `FC(F)(F)c1cccc(N2CCN(CCCCNc3nccc4ccccc34)CC2)c1`, on Histamine H4 receptor [1], the inhibition (usually the percentage by which the read-out fell short of the control) was greater than 20%. The Ki (in general, a dissociation constant, usually derived from enzyme kinetics or from competition with a known ligand) on Histamine H4 receptor [2] turned out to be 5.4 nM.
For the compound `Brc1ccc(C(OCCCc2c[nH]cn2)c2ccc3ccccc3c2)cc1` (configuration not stated), on Histamine H4 receptor [1], the inhibition is greater than 20%. Besides, the Ki at Histamine H4 receptor [2] worked out at 4 nM; at Histamine H3 receptor, 47 nM.
With `O=C(c1ccccc1)c1ccc(OCCCCCN2CCCC2)cc1`, at Histamine H4 receptor [3], the inhibitory constant (Ki) amounted to 13 µM. On Histamine H4 receptor [4], the inhibition was greater than 20%.
Turning to `Ic1ccc(C(OCCCc2c[nH]cn2)c2ccccc2)cc1` (configuration not stated), on Histamine H4 receptor [1], the inhibition is greater than 20%. The Ki at Histamine H4 receptor [2] came to 3 nM; at Histamine H3 receptor it was 14 nM.
As for `O=c1[nH]c2ccccc2n1C1CCN(CCCC(c2ccc(F)cc2)c2ccc(F)cc2)CC1` [PIMOZIDE], on Histamine H4 receptor [5], the affinity, expressed as Ki, was 2000 nM.
`O=[N+]([O-])c1cccc(C(OCCCc2c[nH]cn2)c2ccccc2)c1` (configuration not stated): on Histamine H4 receptor [1], the inhibition was greater than 20%. In addition, the Ki was 2.7 nM at Histamine H4 receptor [2] and 9.6 nM on Histamine H3 receptor.
Turning to `O=C(CCNC(=O)C(Cc1ccccc1)Cn1ccnc1)OCc1ccccc1` (configuration not stated), the inhibition on Histamine H4 receptor [1] is greater than 20%. Besides, the Ki at Histamine H4 receptor [2] came out at 174 nM.
In the case of `Clc1cccc(N2CCN(CCCCNc3ccc4ccccc4n3)CC2)c1Cl`, the Ki in [6] came to 10 nM; on Histamine H4 receptor [3] it was 0.125 µM. Moreover, the inhibition at Histamine H4 receptor [4] is greater than 20%.
Regarding `COc1cc2c(cc1OC)C(C)=C(C(=O)NCCCCN1CCN(c3ccccc3F)CC1)C2`, the inhibitory constant (Ki) on Histamine H4 receptor [3] is 3.8 µM; on D(3) dopamine receptor it was 0.5 nM. Moreover, the inhibition on Histamine H4 receptor [4] is greater than 20%.
On to `CC(=O)c1ccc(OCc2ccc(CN3CCCC(C)C3)cc2)cc1` (configuration not stated), for which the values for the Ki on Histamine H3 receptor and at Histamine H4 receptor [3] were 22 nM and 16.4 µM, respectively. Also, the inhibition at Histamine H4 receptor [4] is greater than 20%.
Take `c1ccc(-c2ccc(CCCOCCCc3c[nH]cn3)cc2)cc1`: the inhibition at Histamine H4 receptor [1] is greater than 20%. The Ki on Histamine H4 receptor [2] worked out at 27 nM; at Histamine H3 receptor, 118 nM.
For the compound `c1ccc(C(OCCCc2c[nH]cn2)(c2ccccc2)c2ccccc2)cc1`, the inhibition on Histamine H4 receptor [4] is greater than 20%.
On to `O=C(/C=C/c1ccccc1)c1ccc(OCCCc2c[nH]cn2)cc1`, for which the inhibition at Histamine H4 receptor [1] was greater than 20%. Moreover, the Ki at Histamine H4 receptor [2] was found to be 11 nM; at Histamine H3 receptor it was 8.3 nM.
Take `O=C(O)C(Cc1cccc2ccccc12)NC(=O)[C@@H](CS)Cc1ccccc1` (some centres not stated): the inhibition at Histamine H4 receptor [1] is greater than 20%. On Histamine H4 receptor [2], the Ki is 62 nM.
With `c1ccc(C(OCCCc2c[nH]cn2)c2ccccc2)cc1`, at Histamine H4 receptor [1], the inhibition was greater than 20%. Further, the results for the Ki (on Histamine H4 receptor [2]; in [6]; on Histamine H3 receptor) were 25 nM, 500 nM and 24 nM, respectively.
Consider `Clc1cccc(N2CCN(CCCCNc3nccc4ccccc34)CC2)c1Cl`, for which the inhibition on Histamine H4 receptor [1] was greater than 20%. The Ki at Histamine H4 receptor [2] turned out to be 5.2 nM; in [6] it was 30 nM.
For the compound `O=C(NC(c1ccc(Cl)cc1)c1ccc(Cl)cc1)OCCCc1c[nH]cn1`, the inhibition on Histamine H4 receptor [1] is greater than 20%. Besides, the figures for the Ki at Histamine H4 receptor [2] and on Histamine H3 receptor were 14.5 nM and 258 nM, respectively.
For the compound `COc1ccc2c(c1)c(CC(=O)NCCCn1ccnc1)c(C)n2C(=O)c1ccc(Cl)cc1`, the Ki on Histamine H4 receptor [3] was determined as 4.2 µM. In addition, on Histamine H4 receptor [4], the inhibition was greater than 20%.
On to `c1ccc(C(OCCCc2cnc[nH]2)(c2ccccc2)c2ccccc2)cc1`, for which the inhibition constant (Ki) at Histamine H3 receptor was greater than 1000 nM; at Histamine H4 receptor [3], 0.24 µM.
As for `COc1ccccc1N1CCN(CCCCNc2nccc3ccccc23)CC1`, on Histamine H4 receptor [1], the inhibition was greater than 20%. Moreover, the Ki at Histamine H4 receptor [2] came out at 51 nM.
Consider `COc1ccc2c(c1)c(CC(=O)NCCCO)c(C)n2C(=O)c1ccc(Cl)cc1`, for which the response on Histamine H4 receptor [7] was half-maximal at 7.78 µM (EC50). The same compound had an Activity at Histamine H4 receptor [8] greater than 20%.
Regarding `CCOC(=O)CN1Cc2ccccc2C[C@@H](NC(=O)C(Cc2ccccc2)C(=O)NO)C1=O` (some centres not stated), the Ki on Histamine H4 receptor [3] came out at 3.02 µM. The inhibition at Histamine H4 receptor [4] was greater than 20%.
As for `O=C(NCCCCN1Cc2cccc3cccc(c23)C1)c1ccc2ccccc2c1`, on Histamine H4 receptor [1], the inhibition is greater than 20%. Further, at Histamine H4 receptor [2], the Ki stood at 400 nM.
For `CC(C)(CN=C(c1ccccc1O)c1ccccc1O)c1c[nH]cn1`, in that order: greater than 20% and 19 nM.
With `COc1ccc(/C(=N/[C@H](C)Cc2cnc[nH]2)c2ccccc2)c(O)c1`, the midpoint of the response at Histamine H4 receptor [7], the EC50, lay at 6.75 µM. Moreover, on Histamine H4 receptor [8], the Activity was greater than 20%.
For the compound `CC(=O)SCC(Cc1ccc2c(c1)OCO2)C(=O)NCC(=O)OCc1ccccc1` (configuration not stated), the Ki at Histamine H4 receptor [3] stood at 0.214 µM. For the same compound, the inhibition on Histamine H4 receptor [4] was greater than 20%.
For the compound `Nc1ccc(NCCc2ccc(OCCCN3CCCCC3)cc2)nc1`, the inhibition constant Ki on Histamine H3 receptor is 4.8 nM; on Histamine H4 receptor [3], 30 µM. Besides, the inhibition at Histamine H4 receptor [4] was greater than 20%.
As to `O=C(CCCc1ccc(I)cc1)OCCCc1cnc[nH]1`, the inhibitory constant (Ki) was determined as 41 nM on Histamine H3 receptor and 0.118 µM on Histamine H4 receptor [3].
As to `O=C(Nc1cccc2ccccc12)N1CCC(c2c[nH]cn2)CC1`, at Histamine H4 receptor [3], the Ki came to 1.09 µM. Also, at Histamine H4 receptor [4], the inhibition is greater than 20%.
For `O=C(CCCc1ccc(I)cc1)OCCCc1c[nH]cn1`, on Histamine H4 receptor [4], the inhibition is greater than 20%.
For the compound `O=C(NCCCCN1CCN(c2cccc(Cl)c2Cl)CC1)c1cncc(Br)c1`, the Ki is 3.1 µM on Histamine H4 receptor [9] and 2.8 nM on D(3) dopamine receptor.

These data come from ChEMBL document CHEMBL4041490, “Discovery of nanomolar ligands with novel scaffolds for the histamine H4 receptor by virtual screening” (Eur J Med Chem, 2017).
